Assay [1] has as its target T1, BT3313 (Bacteroides thetaiotaomicron, UniProt Q8A2J2).
T1 construct: gene BT_3313; signal peptide (lipoprotein) removed; N-terminal hexahistidine tag; pET28 derivative, E. coli
T1 sequence (Q8A2J2 20-667): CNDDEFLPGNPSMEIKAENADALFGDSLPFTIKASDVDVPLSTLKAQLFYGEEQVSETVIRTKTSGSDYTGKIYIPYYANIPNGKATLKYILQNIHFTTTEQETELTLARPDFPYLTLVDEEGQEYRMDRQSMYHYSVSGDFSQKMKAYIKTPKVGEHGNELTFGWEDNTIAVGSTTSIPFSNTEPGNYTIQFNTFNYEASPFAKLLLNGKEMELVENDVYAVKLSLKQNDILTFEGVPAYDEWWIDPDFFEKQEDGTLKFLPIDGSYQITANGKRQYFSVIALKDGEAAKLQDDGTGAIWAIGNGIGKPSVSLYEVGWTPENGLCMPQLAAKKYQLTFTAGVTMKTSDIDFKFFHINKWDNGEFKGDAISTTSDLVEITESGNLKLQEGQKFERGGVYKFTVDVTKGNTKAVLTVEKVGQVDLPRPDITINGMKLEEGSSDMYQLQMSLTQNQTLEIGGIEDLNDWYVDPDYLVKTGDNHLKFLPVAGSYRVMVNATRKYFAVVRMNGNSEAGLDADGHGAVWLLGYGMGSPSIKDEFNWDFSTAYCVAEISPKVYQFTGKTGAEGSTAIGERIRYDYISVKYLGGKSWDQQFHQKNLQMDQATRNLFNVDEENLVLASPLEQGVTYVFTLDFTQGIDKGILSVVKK
The assay is described as follows: isothermal titration calorimetry. The following applies: 50 mM Na-Hepes, pH 7.5, 25 °C. The assay is classed as binding. The source says:
isothermal titration calorimetry on BT3313

For assay [2], the target named is T2, BT3311 (Bacteroides thetaiotaomicron, UniProt Q8A2J4).
T2 construct: gene BT_3311; signal peptide (lipoprotein) removed; N-terminal hexahistidine tag; pET28 derivative, E. coli
T2 sequence (Q8A2J4 22-506): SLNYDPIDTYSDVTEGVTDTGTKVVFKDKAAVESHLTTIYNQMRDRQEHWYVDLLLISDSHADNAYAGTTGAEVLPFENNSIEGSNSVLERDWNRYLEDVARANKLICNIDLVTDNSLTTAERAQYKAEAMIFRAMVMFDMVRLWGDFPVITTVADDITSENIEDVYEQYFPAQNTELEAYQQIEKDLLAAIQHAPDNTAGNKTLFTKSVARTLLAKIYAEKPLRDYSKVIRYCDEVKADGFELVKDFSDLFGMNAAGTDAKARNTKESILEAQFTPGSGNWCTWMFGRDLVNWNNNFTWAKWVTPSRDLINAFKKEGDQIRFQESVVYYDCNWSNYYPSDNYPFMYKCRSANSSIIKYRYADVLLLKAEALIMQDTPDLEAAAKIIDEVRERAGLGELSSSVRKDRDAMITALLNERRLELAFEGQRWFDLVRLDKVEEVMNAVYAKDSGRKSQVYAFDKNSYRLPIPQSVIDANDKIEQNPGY
The assay is described as follows: isothermal titration calorimetry. The assay is classed as binding. The following applies: 50 mM Na-Hepes, pH 7.5, 25 °C. The source says: isothermal titration calorimetry on BT3311

Assay [3] concerns the target T3, BT3312 (Bacteroides thetaiotaomicron, UniProt Q8A2J3).
T3 construct: gene BT_3312; signal peptide (lipoprotein) removed; N-terminal hexahistidine tag; pET28 derivative, E. coli Tuner; residues 82-427 form the TIM barrel domain
T3 sequence (Q8A2J3 22-496): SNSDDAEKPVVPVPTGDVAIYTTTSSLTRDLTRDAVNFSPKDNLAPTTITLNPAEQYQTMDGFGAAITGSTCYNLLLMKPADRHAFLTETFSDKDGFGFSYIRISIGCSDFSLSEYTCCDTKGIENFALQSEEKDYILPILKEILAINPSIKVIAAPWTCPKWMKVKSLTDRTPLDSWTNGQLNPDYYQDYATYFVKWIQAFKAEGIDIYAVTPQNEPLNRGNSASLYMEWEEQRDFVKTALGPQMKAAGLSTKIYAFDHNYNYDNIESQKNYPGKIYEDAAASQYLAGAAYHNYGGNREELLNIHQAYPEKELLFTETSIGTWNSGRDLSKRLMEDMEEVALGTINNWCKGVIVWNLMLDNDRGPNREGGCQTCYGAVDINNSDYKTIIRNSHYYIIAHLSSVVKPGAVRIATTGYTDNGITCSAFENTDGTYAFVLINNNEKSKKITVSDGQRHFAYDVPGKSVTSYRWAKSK
The assay is described as follows: glucose release from […]-β-glucotriose (D-glucose detection kit); also crystal structure, […] Å. The assay is classed as biochemical.

For orientation: Ki means the dissociation constant of the complex between target and ligand, obtained from inhibition or displacement.

Consider `OC[C@H]1O[C@@H](OC[C@H]2O[C@@H](OC[C@H]3O[C@@H](OC[C@H]4O[C@@H](OC[C@H]5O[C@@H](OC[C@H]6O[C@@H](OC[C@H]7OC(O)[C@H](O)[C@@H](O)[C@@H]7O)[C@H](O)[C@@H](O)[C@@H]6O)[C@H](O)[C@@H](O)[C@@H]5O)[C@H](O)[C@@H](O)[C@@H]4O)[C@H](O)[C@@H](O)[C@@H]3O)[C@H](O)[C@@H](O)[C@@H]2O)[C@H](O)[C@@H](O)[C@@H]1O` (stereo partly drawn) [1,6-β-Glucoheptaose], for which the Ka in assay [1] is 1.5 × 10^4 ± 0.2; in assay [2], 2.1 × 10^4 ± 0.1.
The corresponding values for `OC[C@H]1O[C@@H](OC[C@H]2O[C@@H](OC[C@H]3O[C@@H](OC[C@H]4O[C@@H](OC[C@H]5O[C@@H](OC[C@H]6OC(O)[C@H](O)[C@@H](O)[C@@H]6O)[C@H](O)[C@@H](O)[C@@H]5O)[C@H](O)[C@@H](O)[C@@H]4O)[C@H](O)[C@@H](O)[C@@H]3O)[C@H](O)[C@@H](O)[C@@H]2O)[C@H](O)[C@@H](O)[C@@H]1O` (stereo partly drawn) [1,6-β-Glucohexaose] are 8.0 × 10^3 ± 0.7 and 1.6 × 10^4 ± 0.1.
The corresponding values for `OC[C@H]1O[C@@H](OC[C@H]2O[C@@H](OC[C@H]3O[C@@H](OC[C@H]4O[C@@H](OC[C@H]5OC(O)[C@H](O)[C@@H](O)[C@@H]5O)[C@H](O)[C@@H](O)[C@@H]4O)[C@H](O)[C@@H](O)[C@@H]3O)[C@H](O)[C@@H](O)[C@@H]2O)[C@H](O)[C@@H](O)[C@@H]1O` (stereo partly drawn) [1,6-β-Glucopentaose] are 3.6 × 10^3 ± 0.2 and 8.3 × 10^3 ± 0.3.
As to `OC[C@H]1O[C@@H](OC[C@H]2NC[C@H](O)[C@@H](O)[C@@H]2O)[C@H](O)[C@@H](O)[C@@H]1O` [compound 5, β-D-Glucopyranosyl-1,6-deoxynojirimycin], the inhibition constant Ki in assay [3] is ~1 mM.

The values above are taken from paper PMC5481569, “A Bacteroidetes locus dedicated to fungal 1,6-β-glucan degradation: Unique substrate conformation drives specificity of the key endo-1,6-β-glucanase” (The Journal of Biological Chemistry, 2017).
